US12491170B2, “Stable treprostinil prodrugs” (United Therapeutics Corporation, priority 2020, dated 2025)
Values belong to the compound of their own block, whether it stands above or below them.

Tests used:
[1] = biological target: T1, PGE2 receptor 1 (EP1) (Homo sapiens, UniProt P34995); test: EP1 receptor calcium agonist assay (HEK293T cells); format: cell-based; parameters: key to EC50 Fold Different from Treprostinil, EP1 Receptor: NC = too inactive to realistically calculate; conditions: for EP1 Relative to Tre: Table 22, relative to treprostinil EC50 values, * partial agonists or ambiguous dose-response curves
T1 sequence (P34995 1-402): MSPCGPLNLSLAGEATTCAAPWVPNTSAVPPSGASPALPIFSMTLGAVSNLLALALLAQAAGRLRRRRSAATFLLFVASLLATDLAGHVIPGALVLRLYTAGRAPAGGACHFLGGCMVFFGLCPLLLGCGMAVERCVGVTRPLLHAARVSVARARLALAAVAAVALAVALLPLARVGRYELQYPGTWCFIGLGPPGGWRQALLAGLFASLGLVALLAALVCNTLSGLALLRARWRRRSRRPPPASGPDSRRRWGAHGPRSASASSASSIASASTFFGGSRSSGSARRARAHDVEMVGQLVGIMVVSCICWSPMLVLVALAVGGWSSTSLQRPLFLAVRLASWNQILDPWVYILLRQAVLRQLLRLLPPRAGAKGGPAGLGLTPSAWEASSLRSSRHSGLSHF
Experimental: Calcium assay kit: Multiscreen™ Calcium 1.0 No Wash Kit (Multispan, Inc., Cat #MSCA01-1)
• EP1 Calcium and DP1 cAMP Assays: HBSS plus 20 mM HEPES • EP2 and IP1 cAMP Assays: 1 mM IBMX in HBSS plus 20 mM HEPES Instruments: FlexStation III (Molecular Devices) and FLIPR 384 (Molecular Devices)
Cells were thawed from frozen cells and resuspended in assay buffer at desired concentrations. cAMP or Calcium assays were performed according to the manufacturer's protocol using Multiscreen™ TR-FRET cAMP 1.0 No Wash Assay Kit or Multiscreen™ Calcium 1.0 No Wash Kit.
Calcium Assay: Cells were seeded in a 384-well plate at an appropriate density. The calcium assay was conducted according to the manufacturer's protocols (Multiscreen Calcium 1.0 No Wash Assay Kit). The calcium dye loading buffer was added to the cells and incubated for 1 hour at 37° C. For agonist mode, cells were injected with Iloprost control agonist or test compound by FLIPR and calcium mobilization was monitored for 180 seconds with compound injected into the wells at the 19th second. Fluorescent emissions were read at 525 nm with excitation at 490 nm in a FLIPR 384 instrument (Molecular Devices).
Calcium Assay: Calcium assay results are expressed as “RFU” as defined in figure below. Data are represented in Mean±SEM. Dose-response curves were fitted using “Sigmoidal dose-response (variable slope)” function in GraphPad Prism 6. EC50 values were calculated based on the fitted curves.
Prostaglandin receptor activity assessments with treprostinil and treprostinil analogues have been conducted, and a historical, positive control agonist for these receptors, iloprost (for IP, EP2 and EP1) or PGD2 (for DP1), was also included. These studies used cell lines overexpressing either human IP, EP2 or DP1, or EP1 receptors, and following incubation with varying concentrations of compounds, cAMP levels were measured using Fluorescence Resonance Energy Transfer (FRET). The 665/620 (acceptor/donor emission signals) ratio is inversely proportional to the concentration of cAMP.

[2] = Stability in simulated intestinal fluid; format: in vitro ADME; conditions: for Half-life / Percent Remaining 0 min / Percent Remaining 15 min / Percent Remaining 30 min / Percent Remaining 60 min / Percent Remaining 120 min: SIF pH 6.8 with pancreatin, 1 μM, 37° C.; for Formation of Treprostinil, Concentration 0 min / Formation of Treprostinil, Concentration 15 min / Formation of Treprostinil, Concentration 30 min / Formation of Treprostinil, Concentration 60 min / Formation of Treprostinil, Concentration 120 min: SIF, prodrug dosed 1 μM
Experimental: Studies were carried out in simulated intestinal fluid (SIF). SIF was prepared by dissolving 6.8 g of KH2PO4 in 250 mL of water, mixing, and then adding 77 mL of 0.2 N NaOH and […] of water. […] DMSO stocks were first prepared for the test articles. […] The vials were kept in a benchtop Thermomixer® for the duration of the experiment. A separate tube was dosed for each time point in each matrix. […] Samples were mixed and then immediately stored at 4° C. until the end of the experiment. After the final time point was sampled, the plate was mixed and then centrifuged at 3000 rpm for 10 minutes.

[3] = rat
[4] = Plasma stability, human plasma; format: in vitro ADME; conditions: for Formation of Treprostinil, Concentration 0 min / Formation of Treprostinil, Concentration 15 min / Formation of Treprostinil, Concentration 30 min / Formation of Treprostinil, Concentration 60 min / Formation of Treprostinil, Concentration 120 min: prodrug dosed 1 μM
Experimental: (§1) Studies were carried out in mixed-gender human plasma male Sprague-Dawley rat plasma, and male Beagle dog plasma. All plasma was obtained from Bioreclamation and collected on K2EDTA. Plasma was adjusted to pH 7.4 prior to initiating the experiments. DMSO stocks were first prepared for the test articles. […] The vials were kept in a benchtop Thermomixer® for the duration of the experiment. […] Samples were stored at 4° C. until the end of the experiment. After the final time point was sampled, the plate was mixed and then centrifuged at 3000 rpm for 10 minutes.

[5] = Plasma stability, rat plasma; format: in vitro ADME, Sprague-Dawley rat; conditions: for Formation of Treprostinil, Concentration 0 min / Formation of Treprostinil, Concentration 15 min / Formation of Treprostinil, Concentration 30 min / Formation of Treprostinil, Concentration 60 min / Formation of Treprostinil, Concentration 120 min: prodrug dosed 1 μM
Experimental: as §1

[6] = Plasma stability, dog plasma; format: in vitro ADME, Beagle dog; conditions: for Formation of Treprostinil, Concentration 0 min / Formation of Treprostinil, Concentration 15 min / Formation of Treprostinil, Concentration 30 min / Formation of Treprostinil, Concentration 60 min / Formation of Treprostinil, Concentration 120 min: prodrug dosed 1 μM
Experimental: as §1

Compound: CCCCCC(CCC1C(OC(=O)OC)CC2Cc3c(cccc3OCC(=O)O)CC21)OC(=O)OC (centres unmarked) [Prodrug LXXI, treprostinil dicarbonate]
Half-life [2]: >120 min
Percent Remaining 0 min [2]: 100%
Percent Remaining 15 min [2]: 96.2%
Percent Remaining 30 min [2]: 100%
Percent Remaining 60 min [2]: 91.9%
Percent Remaining 120 min [2]: 83.5%
AUC [3]: 33.51 µmol·min/L

Compound: treprostinil diacetate [Prodrug LXXII]
Half-life ([4]; 1 μM, 37° C.): >120 min
Percent Remaining 0 min ([4]; 1 μM, 37° C.): 100%
Percent Remaining 15 min ([4]; 1 μM, 37° C.): 106%
Percent Remaining 60 min ([4]; 1 μM, 37° C.): 102%
Percent Remaining 120 min ([4]; 1 μM, 37° C.): 86.5%
Formation of Treprostinil, Concentration 0 min [4]: 0 µM
Formation of Treprostinil, Concentration 15 min [4]: 0 µM
Formation of Treprostinil, Concentration 30 min ([4]; 30 min): 0 µM
Formation of Treprostinil, Concentration 60 min [4]: 0 µM
Formation of Treprostinil, Concentration 120 min [4]: 0 µM
Half-life ([5]; 1 μM, 37° C.): >120 min
Percent Remaining 0 min ([5]; 1 μM, 37° C.): 100%
Percent Remaining 15 min ([5]; 1 μM, 37° C.): 107%
Percent Remaining 60 min ([5]; 1 μM, 37° C.): 83.6%
Percent Remaining 120 min ([5]; 1 μM, 37° C.): 79.7%
Formation of Treprostinil, Concentration 0 min [5]: 0 µM
Formation of Treprostinil, Concentration 15 min [5]: 0 µM
Formation of Treprostinil, Concentration 30 min ([5]; 30 min): 0 µM
Formation of Treprostinil, Concentration 60 min [5]: 0.00595 µM
Formation of Treprostinil, Concentration 120 min [5]: 0.0151 µM
Half-life ([6]; 1 μM, 37° C.): >120 min
Percent Remaining 0 min ([6]; 1 μM, 37° C.): 100%
Percent Remaining 15 min ([6]; 1 μM, 37° C.): 96.7%
Percent Remaining 60 min ([6]; 1 μM, 37° C.): 107%
Percent Remaining 120 min ([6]; 1 μM, 37° C.): 82.9%
Formation of Treprostinil, Concentration 0 min [6]: 0 µM
Formation of Treprostinil, Concentration 15 min [6]: 0 µM
Formation of Treprostinil, Concentration 30 min ([6]; 30 min): 0 µM
Formation of Treprostinil, Concentration 60 min [6]: 0 µM
Formation of Treprostinil, Concentration 120 min [6]: 0 µM
Half-life [2]: >120 min
Percent Remaining 0 min [2]: 100%
Percent Remaining 15 min [2]: 111%
Percent Remaining 60 min [2]: 108%
Percent Remaining 120 min [2]: 109%
Formation of Treprostinil, Concentration 0 min [2]: 0 µM
Formation of Treprostinil, Concentration 15 min [2]: 0 µM
Formation of Treprostinil, Concentration 30 min [2]: 0 µM
Formation of Treprostinil, Concentration 60 min [2]: 0 µM
Formation of Treprostinil, Concentration 120 min [2]: 0.0126 µM
AUC [3]: 10.02 µmol·min/L

Compound: CCCCCC(CCC1C(O)CC2Cc3c(cccc3OCC(=O)O)CC21)OC(=O)CC (centres unmarked) [Prodrug LV]
EP1 Relative to Tre [1]: 122x*

Second part, the compound after the results:

EP1 Relative to Tre [1]: 20x*
Compound: CCCCCC(CCC1C(O)CC2Cc3c(cccc3OCC(=O)O)CC21)OC(C)=O (centres unmarked) [Prodrug XLIII]

Half-life ([4]; 1 μM, 37° C.): >120 min
Percent Remaining 0 min ([4]; 1 μM, 37° C.): 100%
Percent Remaining 15 min ([4]; 1 μM, 37° C.): 92.4%
Percent Remaining 30 min ([4]; 1 μM, 37° C., 30 min): 102%
Percent Remaining 60 min ([4]; 1 μM, 37° C.): 93.3%
Percent Remaining 120 min ([4]; 1 μM, 37° C.): 103%
Formation of Treprostinil, Concentration 0 min [4]: 0 µM
Formation of Treprostinil, Concentration 15 min [4]: 0 µM
Formation of Treprostinil, Concentration 30 min ([4]; 30 min): 0 µM
Formation of Treprostinil, Concentration 60 min [4]: 0 µM
Formation of Treprostinil, Concentration 120 min [4]: 0 µM
Half-life ([5]; 1 μM, 37° C.): 102 min
Percent Remaining 0 min ([5]; 1 μM, 37° C.): 100%
Percent Remaining 15 min ([5]; 1 μM, 37° C.): 98.3%
Percent Remaining 30 min ([5]; 1 μM, 37° C., 30 min): 80.3%
Percent Remaining 60 min ([5]; 1 μM, 37° C.): 69.3%
Percent Remaining 120 min ([5]; 1 μM, 37° C.): 45.0%
Formation of Treprostinil, Concentration 0 min [5]: 0 µM
Formation of Treprostinil, Concentration 15 min [5]: 0.00392 µM
Formation of Treprostinil, Concentration 30 min ([5]; 30 min): 0.0101 µM
Formation of Treprostinil, Concentration 60 min [5]: 0.0331 µM
Formation of Treprostinil, Concentration 120 min [5]: 0.0768 µM
Half-life ([6]; 1 μM, 37° C.): >120 min
Percent Remaining 0 min ([6]; 1 μM, 37° C.): 100%
Percent Remaining 15 min ([6]; 1 μM, 37° C.): 103%
Percent Remaining 30 min ([6]; 1 μM, 37° C., 30 min): 116%
Percent Remaining 60 min ([6]; 1 μM, 37° C.): 97.4%
Percent Remaining 120 min ([6]; 1 μM, 37° C.): 91.4%
Formation of Treprostinil, Concentration 0 min [6]: 0 µM
Formation of Treprostinil, Concentration 15 min [6]: 0 µM
Formation of Treprostinil, Concentration 30 min ([6]; 30 min): 0 µM
Formation of Treprostinil, Concentration 60 min [6]: 0 µM
Formation of Treprostinil, Concentration 120 min [6]: 0 µM
Half-life [2]: >120 min
Percent Remaining 0 min [2]: 100%
Percent Remaining 15 min [2]: 97.2%
Percent Remaining 30 min [2]: 104%
Percent Remaining 60 min [2]: 93.6%
Percent Remaining 120 min [2]: 86.2%
Formation of Treprostinil, Concentration 0 min [2]: 0 µM
Formation of Treprostinil, Concentration 15 min [2]: 0 µM
Formation of Treprostinil, Concentration 30 min [2]: 0 µM
Formation of Treprostinil, Concentration 60 min [2]: 0.00415 µM
Formation of Treprostinil, Concentration 120 min [2]: 0.0720 µM
EC50 Fold Different from Treprostinil, EP1 Receptor ([1]; Table 18, * partial agonists or odd dose-response curves): NC
AUC [3]: 38.82 µmol·min/L
Compound: CCCCCC(CCC1C(OC(=O)CC)CC2Cc3c(cccc3OCC(=O)O)CC21)OC(=O)CC (centres unmarked) [Prodrug LXX, treprostinil dipropionate]

EP1 Relative to Tre [1]: 5x
EP1 Relative to Tre ([1]; listed as Prodrug VI repeat): 42x
Compound: CCCCCC(CCC1C(O)CC2Cc3c(cccc3OCC(=O)O)CC21)OP(=O)(O)O (centres unmarked) [Prodrug VI]
